Experimental data as given in US20050112179A1, “Method to reduce stool odor of companion animals” (priority 2003, published 2005).
Where two headings read alike, the source gives them in different places.

How the values were obtained:
flatulence = settings: dogs, literature report; cited from earlier work
stool odor compounds [1] = settings: 3 weeks; for Alcohols / Aldehydes / Carboxylic acids / Esters / Heterocycles / Indoles / Ketones / Phenols / Thiols/Sulfides: dog stool, area under chromatogram peak
Protocol: (§1) An experiment was conducted to characterize the effects of zinc acetate on stool odor compounds in dogs. To a control food, which was a dry food composed of kibbles containing a base level of 150 ppm zinc in the form of zinc acetate, various amounts of zinc in the form of zinc acetate were added as a coating on the kibbles. This was done by hand coating (sprinkling) fine zinc acetate powder on the kibble in a rotating drum in a two-step coating process after all other topical ingredients had been added by in-line enrobing. Ten dogs were fed control food with no added zinc, ten dogs were fed control food with 400 ppm zinc added, ten dogs were fed control food with 600 ppm zinc added, and ten dogs were fed control food with 900 ppm zinc added. The dogs were fed one of these diets for three weeks. At the end of three weeks, stool samples were collected and analyzed by putting a standard amount of stool in a glass container and incubating a solid phase microextraction fiber in the headspace. Volatiles bound to the fiber were eluted onto a gas chromatograph for analysis. The compounds were identified using a […].
(§2) The numbers indicate relative differences as measured by the area under the peak in a chromatogram.

stool odor compounds [2] = settings: one month; for Alcohols / Aldehydes / Carboxylic acids / Esters / Heterocycles / Indoles / Ketones / Phenols / Thiols/Sulfides: cat stool, area under chromatogram peak
Protocol: as §1
An experiment was conducted to characterize the effects of zinc acetate on stool odor compounds in cats. To a control food, which was a dry food composed of kibbles containing a base level of 160 ppm zinc in the form of zinc acetate, various amounts of zinc were added in the form of zinc acetate as in Example 1. Eight cats were fed control food with no added zinc, eight cats were fed control food with 860 ppm zinc acetate added, seven cats were fed control food with 1200 ppm zinc acetate added, and seven cats were fed control food with 1800 ppm zinc acetate added. The cats were fed one of these diets for one month. At the end of the month, stool samples were collected and analyzed as described in Example 1.
as §2

[3] = 400 ppm added zinc on control food
[4] = 600 ppm added zinc on control food
[5] = 900 ppm added zinc on control food
[6] = 860 ppm added zinc on control food
[7] = 1200 ppm added zinc on control food
[8] = 1800 ppm added zinc on control food

CC(=O)[O-].CC(=O)[O-].[Zn+2] [zinc acetate]
number of flatulent episodes (flatulence): decreased
odor of gas (flatulence): decreased
total gas production (flatulence): decreased
Alcohols (stool odor compounds [1]; [3]): 17.3 ± 12.5 ×10^5
Aldehydes (stool odor compounds [1]; [3]): 0.45 ± 0.3 ×10^3
Carboxylic acids (stool odor compounds [1]; [3]): 3.79 ± 3.55 ×10^4
Esters (stool odor compounds [1]; [3]): 34.3 ± 34.0 ×10^5
Heterocycles (stool odor compounds [1]; [3]): 0.94 ± 0.37 ×10^4
Indoles (stool odor compounds [1]; [3]): 2.64 ± 2.19 ×10^4
Ketones (stool odor compounds [1]; [3]): 179 ± 0.89 ×10^6
Phenols (stool odor compounds [1]; [3]): 9.62 ± 6.0 ×10^4
Thiols/Sulfides (stool odor compounds [1]; [3]): 8.69 ± 6.16 ×10^4
Alcohols (stool odor compounds [1]; [4]): 12.3 ± 0.9 ×10^5
Aldehydes (stool odor compounds [1]; [4]): 0.56 ± 0.51 ×10^3
Carboxylic acids (stool odor compounds [1]; [4]): 22.7 ± 32.2 ×10^4
Esters (stool odor compounds [1]; [4]): 34.1 ± 34.4 ×10^5
Heterocycles (stool odor compounds [1]; [4]): 1.19 ± 0.54 ×10^4
Indoles (stool odor compounds [1]; [4]): 2.0 ± 0.86 ×10^4
Ketones (stool odor compounds [1]; [4]): 201 ± 66.5 ×10^6
Phenols (stool odor compounds [1]; [4]): 9.17 ± 5.64 ×10^4
Thiols/Sulfides (stool odor compounds [1]; [4]): 5.14 ± 2.4 ×10^4
Alcohols (stool odor compounds [1]; [5]): 23.4 ± 14.3 ×10^5
Aldehydes (stool odor compounds [1]; [5]): 1.09 ± 1.29 ×10^3
Carboxylic acids (stool odor compounds [1]; [5]): 27.2 ± 21.2 ×10^4
Esters (stool odor compounds [1]; [5]): 32.6 ± 0.9 ×10^5
Heterocycles (stool odor compounds [1]; [5]): 1.13 ± 0.49 ×10^4
Indoles (stool odor compounds [1]; [5]): 1.78 ± 2.45 ×10^4
Ketones (stool odor compounds [1]; [5]): 160 ± 63.1 ×10^6
Phenols (stool odor compounds [1]; [5]): 4.08 ± 3.58 ×10^4
Thiols/Sulfides (stool odor compounds [1]; [5]): 4.91 ± 1.3 ×10^4
Effect of addition of zinc to the food on stool odor compound levels (in words) (stool odor compounds [1]; dogs, 400-900 ppm added zinc vs control food): decreased levels of phenols, thiols and sulfides and indoles
Alcohols (stool odor compounds [2]; [6]): 13.2 ± 27 ×10^4
Aldehydes (stool odor compounds [2]; [6]): 5.6 ± 3.6 ×10^4
Carboxylic acids (stool odor compounds [2]; [6]): 317 ± 160 ×10^4
Esters (stool odor compounds [2]; [6]): 78.4 ± 22.9 ×10^4
Heterocycles (stool odor compounds [2]; [6]): 0.62 ± 0.13 ×10^4
Indoles (stool odor compounds [2]; [6]): 0.39 ± 0.3 ×10^4
Ketones (stool odor compounds [2]; [6]): 25.6 ± 8.14 ×10^4
Phenols (stool odor compounds [2]; [6]): 10.3 ± 4.3 ×10^4
Thiols/Sulfides (stool odor compounds [2]; [6]): 6.2 ± 2.3 ×10^4
Alcohols (stool odor compounds [2]; [7]): 6.87 ± 10.8 ×10^4
Aldehydes (stool odor compounds [2]; [7]): 3.6 ± 1.7 ×10^4
Carboxylic acids (stool odor compounds [2]; [7]): 225 ± 78.1 ×10^4
Esters (stool odor compounds [2]; [7]): 76.9 ± 47.5 ×10^4
Heterocycles (stool odor compounds [2]; [7]): 0.62 ± 0.22 ×10^4
Indoles (stool odor compounds [2]; [7]): 0.88 ± 0.62 ×10^4
Ketones (stool odor compounds [2]; [7]): 60.7 ± 38.1 ×10^4
Phenols (stool odor compounds [2]; [7]): 12.6 ± 4.7 ×10^4
Thiols/Sulfides (stool odor compounds [2]; [7]): 7.7 ± 3.4 ×10^4
Alcohols (stool odor compounds [2]; [8]): 15.1 ± 23.3 ×10^4
Aldehydes (stool odor compounds [2]; [8]): 1.9 ± 1.6 ×10^4
Carboxylic acids (stool odor compounds [2]; [8]): 146 ± 144 ×10^4
Esters (stool odor compounds [2]; [8]): 28.7 ± 1.8 ×10^4
Heterocycles (stool odor compounds [2]; [8]): 0.46 ± 0.17 ×10^4
Indoles (stool odor compounds [2]; [8]): 2.3 ± 1.5 ×10^4
Ketones (stool odor compounds [2]; [8]): 42.2 ± 26.2 ×10^4
Phenols (stool odor compounds [2]; [8]): 7.2 ± 2.7 ×10^4
Thiols/Sulfides (stool odor compounds [2]; [8]): 6.8 ± 3.9 ×10^4
Effect of addition of zinc to the food on stool odor compound levels (in words) (stool odor compounds [2]; cats, 860-1800 ppm added zinc vs control food): decreased stool levels of heterocycles, indoles, aldehydes and phenols
